Experimental data taken from patent US12233081B2, “Hygromycin a compounds and methods of treating spirochete diseases” (priority 2018, dated 2025).

Assays:
B. burgdorferi N40 = test: C3H mice infected with Borrelia burgdorferi, cell counts in skin tissue; type: in vivo; conditions: 156 mg/kg IP injection, 5 days of dosing
Method: C3H mice (Charles River Laboratories) are used in classical Lyme disease infection model. Mice were rested for more than 1 day after delivery before infected with 10^5 B. burgdorferi N40 cells by subcutaneous injection. Infection was established for 3 weeks. 100 μl of saline, ceftriaxone or hygromycin A was administered by IP injection. Compounds of the invention can also be tested for efficacy as described herein.
Ceftriaxone (USP grade) was purchased from Sigma-Aldrich. Saline was purchased from Baxter Healthcare. Ceftriaxone powder was dissolved into saline to 31.2 mg/ml solution. Hygromycin A stock solution at 200 mg/ml was diluted into saline to make 50 mg/ml (250 mg/kg), 15 mg/ml (75 mg/kg), 14 mg/ml (70 mg/kg), 10 mg/ml (50 mg/kg) and 5 mg/ml (25 mg/kg) solutions.
In the B. burgdorferi mice infection model, skin is the tissue with highest bacterial burden. After sacrificing mice 2 days after 5 days of dosing, we took 100 mg skin tissue from mouse ear, homogenized the tissue and plated on BSK-II semi-agar plates for cell number counts. No colony appearing on the plates is considered as clearance of the infection.

gut microbiome = gut microbiome 16S rRNA sequencing of stool of infected, treated mice; conditions: subcutaneous 156 mg/kg every 12 hours for 5 days

Q: What does the source list for CO/N=C(\C(=O)N[C@@H]1C(=O)N2C(C(=O)O)=C(CSc3nc(=O)c(=O)[nH]n3C)CS[C@H]12)c1csc(N)n1 [Ceftriaxone]?
A: # of B. burgdorferi cells in 100 mg skin tissue (B. burgdorferi N40): <1; Acholeplasmataceae change in percent relative abundance (gut microbiome): 0.213%; Aerococcaceae change in percent relative abundance (gut microbiome): 0.000%; Anaerolineaceae change in percent relative abundance (gut microbiome): 0.000%; Anaeroplasmataceae change in percent relative abundance (gut microbiome): 0.000%; Anaplasmataceae change in percent relative abundance (gut microbiome): 0.001%; Aspergillaceae change in percent relative abundance (gut microbiome): 0.000%; Asteraceae change in percent relative abundance (gut microbiome): 0.011%; Bacillaceae change in percent relative abundance (gut microbiome): 0.055%; Bacillales change in percent relative abundance (gut microbiome): −0.174%; Bacteroidaceae change in percent relative abundance (gut microbiome): −26.593%; Bifidobacteriaceae change in percent relative abundance (gut microbiome): 0.000%; Brucellaceae change in percent relative abundance (gut microbiome): 0.000%; Camobacteriaceae change in percent relative abundance (gut microbiome): 0.000%; Chitinophagaceae change in percent relative abundance (gut microbiome): 0.000%; Christensenellaceae change in percent relative abundance (gut microbiome): 0.000%; Clostridiaceae change in percent relative abundance (gut microbiome): −10.423%; Clostridiales change in percent relative abundance (gut microbiome): −0.174%; Clostridiales family xi. incertae sedis change in percent relative abundance (gut microbiome): −0.050%; Clostridiales family xiii. incertae sedis change in percent relative abundance (gut microbiome): −0.015%; Coriobacteriaceae change in percent relative abundance (gut microbiome): −0.049%; Corynebacteriaceae change in percent relative abundance (gut microbiome): 0.002%; Cytophagaceae change in percent relative abundance (gut microbiome): 0.000%; Deferribacteraceae change in percent relative abundance (gut microbiome): −1.344%; Defluviitaleaceae change in percent relative abundance (gut microbiome): −0.002%; Desulfobacteraceae change in percent relative abundance (gut microbiome): 0.000%; Enterobacteriaceae change in percent relative abundance (gut microbiome): −0.487%; Enterococcaceae change in percent relative abundance (gut microbiome): 77.7%; Erysipelotrichaceae change in percent relative abundance (gut microbiome): −1.012%; Eubacteriaceae change in percent relative abundance (gut microbiome): −3.445%; Fabaceae change in percent relative abundance (gut microbiome): 0.003%; Flavobacteriaceae change in percent relative abundance (gut microbiome): 0.000%; Francisellaceae change in percent relative abundance (gut microbiome): 0.000%; Fusobacteriaceae change in percent relative abundance (gut microbiome): 0.001%; Gammaproteobacteria change in percent relative abundance (gut microbiome): −0.008%; Gloeobacteraceae change in percent relative abundance (gut microbiome): −0.018%; Gracilibacteraceae change in percent relative abundance (gut microbiome): −0.087%; Halomonadaceae change in percent relative abundance (gut microbiome): 0.000%; Hylidae change in percent relative abundance (gut microbiome): 0.001%; Kopriimonadaceae change in percent relative abundance (gut microbiome): 0.000%; Lachnospiraceae change in percent relative abundance (gut microbiome): −11.193%; Lactobacillaceae change in percent relative abundance (gut microbiome): −1.712%; Leuconostocaceae change in percent relative abundance (gut microbiome): 0.015%; Methylobacteriaceae change in percent relative abundance (gut microbiome): 0.001%; Microbacteriaceae change in percent relative abundance (gut microbiome): 0.001%; Mucoraceae change in percent relative abundance (gut microbiome): 0.000%; Nostocaceae change in percent relative abundance (gut microbiome): 0.002%; Onagraceae change in percent relative abundance (gut microbiome): 0.000%; Oscillatoriales change in percent relative abundance (gut microbiome): 0.090%; Oscillospiraceae change in percent relative abundance (gut microbiome): −0.009%; Paenibacillaceae change in percent relative abundance (gut microbiome): 0.003%; Pasteurellaceae change in percent relative abundance (gut microbiome): 0.001%; Pelobacteraceae change in percent relative abundance (gut microbiome): 0.000%; Peptococcaceae change in percent relative abundance (gut microbiome): −0.602%; Peptoniphilaceae change in percent relative abundance (gut microbiome): 0.001%; Peptostreptococcaceae change in percent relative abundance (gut microbiome): −0.185%; Physalacriaceae change in percent relative abundance (gut microbiome): 0.000%; Poaceae change in percent relative abundance (gut microbiome): 0.820%; Polyangiaceae change in percent relative abundance (gut microbiome): 0.001%; Porphyromonadaceae change in percent relative abundance (gut microbiome): −24.493%; Prevotellaceae change in percent relative abundance (gut microbiome): −0.417%; Pseudomonadaceae change in percent relative abundance (gut microbiome): 0.002%; Rhizobiaceae change in percent relative abundance (gut microbiome): 0.001%; Rhodobacteraceae change in percent relative abundance (gut microbiome): 0.000%; Rikenellaceae change in percent relative abundance (gut microbiome): −6.750%; Ruminococcaceae change in percent relative abundance (gut microbiome): −2.217%; Sphingomonadaceae change in percent relative abundance (gut microbiome): 0.000%; Spirochaetaceae change in percent relative abundance (gut microbiome): −0.055%; Spiroplasmataceae change in percent relative abundance (gut microbiome): −0.051%; Staphylococcaceae change in percent relative abundance (gut microbiome): 0.047%; Streptococcaceae change in percent relative abundance (gut microbiome): 12.672%; Thermoanaerobacteraceae change in percent relative abundance (gut microbiome): −0.033%; Veillonellaceae change in percent relative abundance (gut microbiome): 0.000%; Verrucomicrobiaceae change in percent relative abundance (gut microbiome): −0.004%; Xanthomonadaceae change in percent relative abundance (gut microbiome): 0.001%; all other commensal taxa such as Bacteroidaceae and Lactobacillaceae (gut microbiome): depleted; mice with Enterococcaceae blooms (gut microbiome): 5/5; Enterococcaceae change in percent relative abundance (gut microbiome; listed as Cef): 77.719%
